# Assay results as given in US20100227836A1, “PARENTERAL ADMINISTRATION OF A GLUCOSAMINE” (THE JOHNS HOPKINS UNIVERSITY, priority 2008, published 2010).
# Assays:
# [1] = tested on: cell growth, matrix production and gene expression; conditions: narrow window; cited from earlier work
# [2] = tested on: surgically manipulated rat knees (osteoarthritis); assay: Experimental model of osteoarthritis in rodents, intraarticular injection, cartilage histology (safranin-O); type: in vivo; conditions: 2 mM, transcutaneous intraarticular injections weekly for three weeks
# Description: For example, in an experimental model of osteoarthritis in rodents, rat knees were surgically manipulated to obtain histological manifestations of osteoarthritis (Janusz et al., Osteoarth, Cart. 10:785-791, 2002). Four weeks […], injured joints were untreated, or treated with a PBS control, a 2 mM glucosamine solution or a 1:1 mixture of 2 mM glucosamine solution and CSMA-aldehyde (chondroitin sulfate methacrylate) (Wang et al., Nat. Mater. 6:385-392, 2007). Treatments were transcutaneous, intraarticular injections weekly for three weeks.
# [3] = following nasogastric intake of 20 mg/kg/day of GlcN; cited from earlier work
# [4] = tested on: transforming growth factor β1 (TGF-β1) expression; conditions: cited from earlier work
smiles,measurement,setting,value
"N[C@H]1C(O)O[C@H](CO)[C@@H](O)[C@@H]1O (stereo partly drawn) [glucosamine, Glucosamine]","concentration window with beneficial effect on cell growth, matrix production and gene expression",[1],no more than 2 mM
same,cartilage development and organization across treatment groups,[2],best developed and well organized
same,"cartilage development in treated joints (histology, safranin-O)","[2]; four weeks after surgery, compared to PBS control and untreated control joints",Florid cartilage development
same,level in serum,[3],~6 µM
same,level in synovial fluid,[3],~0.5 µM
same,TGF-β1 expression,[4],upregulated
